{
  "source": "patent US10596223B2",
  "about": "“JNK inhibitor molecules for treatment of various diseases” (Xigen Inflammation Ltd., priority 2011, dated 2020)",
  "key": {"[1]": {"test_system": "Primary Rat Whole Blood Cells", "test": "Cytokine release in rat whole blood (LPS or PMA+ionomycin, 4 h)", "type": "cell-based", "conditions": "10 μM inhibitor, three activator concentrations", "experimental": "Given are the results for the control, 1 μM of SEQ ID NO: 172, 3 μM of SEQ ID NO: 172, and 10 μM of SEQ ID NO: 172 at different levels of LPS (ng/ml).\nFIG. 17 Dose dependent inhibition of IL-2 release in rat whole blood stimulated with PMA+ionomycin. JNK inhibitor with SEQ ID NO: 172 was added at three different concentrations, namely 1, 3 and 10 μM 1 h before stimulation with PMA+ionomycin. Three doses of activators were added (25/500 ng/mL, 50/750 ng/mL and 50/1000 ng/mL) for 4 h. IL-2 release was assessed in supernatant.\nWhole blood is collected from anesthetized rat or human healthy volunteers using a venipuncture connected to a pre-labeled vacuum tube containing sodium citrate. Tubes are gently mixed by inversion 7-8 times; and are then kept at RT until stimulation. JNK inhibitor of SEQ ID NO: 172_is prepared […] concentrated in PBS, and 30 μl/well of mix is added into 96-well plate. Whole blood is diluted by 1:2 in PBS and 120 μl of diluted blood is added in each well where either PBS alone or JNK inhibitor of SEQ ID NO: 172 has been previously added. Whole blood is incubated at 37° C.; 85 rpm (Stuart Orbital incubator S1500) for 60 min. […] Cytokine (IL-6, IL-2, IFNγ and TNFα) were then measured using standard Elisa kits (e.g. from R&D Systems: DuoSet Elisas; or from BD Biosciences: BD Opteia Set Elisa). Results are expressed as pg/ml of supernatant of the measured cytokine. […]"}, "[2]": {"test_system": "primary human T-cells", "test": "IL2 secretion by primary human T-cells", "type": "cell-based", "text": "The JNK inhibitors used are indicated by their SEQ ID NO: 172 and 197."}, "[3]": {"test_system": "endotoxins-induced uveitis albino rat model", "test": "Endotoxins induced uveitis (EIU), single intravenous injection, clinical scoring 24 hours after LPS", "type": "in vivo", "parameters": "key to clinical score of ocular inflammation, mean score (mean±SEM) / clinical score of ocular inflammation, median: ocular inflammation score per eye, 0 = none to 4 = intense (+1 fibrin)", "conditions": "for clinical score of ocular inflammation, mean score (mean±SEM) / clinical score of ocular inflammation, median: 24 hours after LPS", "experimental": "FIG. 28 Clinical evaluation of administration of different amounts of the JNK inhibitor according to SEQ ID NO: 172 in albino rats after intravenous administration (endotoxins induced uveitis model). Form left to right: Vehicle, 0.015 mg/kg (i.v.) of SEQ ID NO: 172; 0.18 mg/kg (i.v.) of SEQ ID NO: 172; 1.8 mg/kg (i.v.) of SEQ ID NO: 172, 2 mg/kg (i.v.) of SEQ ID NO: 197 and 20 μg dexamethasone (administered directly by subconjunctival injection to the eye). Indicated is the clinical score (mean and the SEM).\nThe anti-inflammatory potency of the JNK inhibitor of SEQ ID NO: 172 was tested in albino rats following intravenous administration (EIU/LPS model). The aim of this study was to determine the effects of single intravenous injections of SEQ ID NO: 172 (0.015, 0.18, and 1.80 mg/kg) on the inflammatory response in an endotoxins-induced uveitis albino rat model and to compare these affects to those obtained with prior art JNK inhibitor of SEQ ID NO: 197 (2 mg/kg). As a further control served phosphate sodic dexamethasone.\nSixty (60) male Lewis rats were randomly divided into six (6) groups of ten (10) animals each. EIU was induced by footpad injection of lipopolysaccharide (LPS, 1 mg/kg). NaCl (0.9%), SEQ ID NO: 197 at 2 mg/kg and SEQ ID NO: 172 at three concentrations (1.80 mg/kg, 0.18 mg/kg and 0.015 mg/kg) were administered by intravenous injection. Phosphate sodic dexamethasone ([…]) was administered by sub-conjunctival injection in both eyes. 24 hours after LPS injection, inflammatory response was evaluated by clinical scoring.\nThe intensity of clinical ocular inflammation was scored on a scale from 0 to 4 for each eye: • Grade 0 no inflammation • Grade 1 slight iris and conjunctival vasodilation • Grade 2 moderate iris and conjunctival vasodilation with flare • Grade 3 intense iris and conjunctival vasodilation with flare • Grade 4 intense inflammatory reaction • (+1) fibrin formation and seclusion of pupils"}},
  "note": "Square brackets hold non-standard residues; d marks the D form. Peptide text beside a SMILES is read from it.",
  "data": [
    {"smiles": "CC(C)C[C@H](NC(=O)[C@H](CC(N)=O)NC(=O)[C@H](CC(C)C)NC(=O)[C@@H](NC(=O)[C@@H](C)NC(=O)[C@@H]1CCCN1C(=O)[C@H](CCCNC(=N)N)NC(=O)[C@@H](CCCCN)NC(=O)[C@@H]1CCCN1C(=O)[C@H](CCCNC(=N)N)NC(=O)[C@@H](CCCNC(=N)N)NC(=O)[C@H](CCCNC(=N)N)NC(=O)[C@H](CCCNC(=N)N)NC(=O)[C@H](CCC(N)=O)NC(=O)[C@@H](CCCNC(=N)N)NC(=O)[C@H](CCCNC(=N)N)NC(=O)[C@H](CCCCN)NC(=O)[C@H](CCCCN)NC(=O)[C@H](N)CCCNC(=N)N)[C@@H](C)O)C(=O)N[C@H](Cc1ccccc1)C(N)=O", "note": "[SEQ ID NO: 172, rKKRrQRRrRPkRPaTLNLf] (H-[dR]KKR[dR]QRR[dR]RP[dK]RP[dA]TLNL[dF]-NH2; N-terminus assumed)", "values": [
      {"measurement": "PMA-iono-induced IL-2 release", "setting": "[1]", "result": "did efficiently reduce PMA-iono-induced IL-2 release"},
      {"measurement": "IL2 secretion in response to CD3/CD28 stimulation", "setting": "[2]", "result": "blocks IL2 secretion"},
      {"measurement": "IL2 secretion in response to PMA/Ionomycin", "setting": "[2]", "result": "blocks IL2 secretion"},
      {"measurement": "clinical score of ocular inflammation, mean score (mean±SEM)", "setting": "[3]; 0.015 mg/kg intravenous", "result": "2.3±0.3"},
      {"measurement": "clinical score of ocular inflammation, median", "setting": "[3]; 0.015 mg/kg intravenous", "result": 2},
      {"measurement": "clinical score of ocular inflammation, mean score (mean±SEM)", "setting": "[3]; 0.18 mg/kg intravenous", "result": "2.4±0.3"},
      {"measurement": "clinical score of ocular inflammation, median", "setting": "[3]; 0.18 mg/kg intravenous", "result": 2},
      {"measurement": "clinical score of ocular inflammation, mean score (mean±SEM)", "setting": "[3]; 1.80 mg/kg intravenous", "result": "2.1±0.3"},
      {"measurement": "clinical score of ocular inflammation, median", "setting": "[3]; 1.80 mg/kg intravenous", "result": 2},
      {"measurement": "endotoxin-induced inflammation in the anterior chamber (conclusion)", "setting": "[3]; single intravenous injection, SEQ ID NO: 197 at 2 mg/kg, SEQ ID NO: 172 at 0.015, 0.18, 1.80 mg/kg", "result": "also reduced the endotoxin-induced inflammation"}
    ]}
  ]
}
